Source: patent publication US20050019357A1, “(2S,3R,4S)-4-hydroxyisoleucine-containing cosmetic compositions and methods of application” (Caster, priority 2003, published 2005)

What was measured:
[1] = test system: Cellular Retinoic Acid Binding Protein (CRAB-P-2); experiment: cDNA-macroarrays confirmed by quantitative RT-PCR on messenger RNAs of epidermal cells: CRAB-P-2 expression; type: cell-based
[2] = test system: Bullous Pemphigoid Antigen 1 (BPAG-1); experiment: cDNA-macroarrays confirmed by quantitative RT-PCR on messenger RNAs of epidermal cells: BPAG-1 expression; type: cell-based
JL1-R1 receptor = experiment: cDNA-macroarrays confirmed by quantitative RT-PCR on messenger RNAs of epidermal cells: JL1-R1 receptor expression; type: cell-based
TNS & CRAB-2 receptors = experiment: cDNA-macroarrays confirmed by quantitative RT-PCR on messenger RNAs of epidermal cells: TNS & CRAB-2 receptor expression; type: cell-based
[3] = test system: men with alopecia (proportion of hair in the telogen phase greater than 15%); experiment: Anti-hair loss study by videotrichogram on volunteers with alopecia; type: in vivo, human; conditions: used as active ingredient in an anti-hair loss composition already containing Lentinus edodes extract, procyanidolic oligomers and Cananga odorata essential oil
Description: The anti-ageing effect on the epidermis was confirmed in vivo in a study relating to the anti-hair loss properties of (2S,3R,4S)-4-hydroxyisoleucine carried out on volunteer subjects affected by alopecia, having a proportion of hair in the telogen phase greater than […] 15%. […] This anti-hair loss composition is described in application FR 2 776 184 of which the applicant is proprietor. It contains an aqueous extract of the mushroom Lentinus edodes rich in 1,3-β-D-1,6-β-D-glucan, procyanidolic oligomers extracted from grapeseed cuticle, and essential oil extracted from the flowers of Cananga odorata. […]
This study was carried out on a sample of 25 volunteers for each composition tested. The only people included in the study were men from 20 to 50 years old (average age of each group 37 years) with alopecia, that is to say having a proportion of hair in the telogen phase, determined by videotrichogram, greater than 15%.
The apparatus used is a videomicroscope equipped with a ×25 lens, which is mobile and optical fibre-based, linked to a computer system for image acquisition. The lens is placed directly over the zone to be studied, the image is digitized, recorded and analysed with the aid of a specific software (COUNTHAIR®) developed by the company DERMSCAN which makes it possible to count the hair strands and to measure their length. […]

Structure (SMILES): C[C@@H]([C@H](C)O)[C@H](N)C(=O)O [(2S,3R,4S)-4-hydroxyisoleucine]
- expression of Cellular Retinoic Acid Binding Protein (CRAB-P-2) [1]: significant underexpression
- expression of Bullous Pemphigoid Antigen 1 (BPAG-1) [2]: significant overexpression
- expression of the JL1-R1 receptor (JL1-R1 receptor): significant overexpression
- expression of the TNS & CRAB-2 receptors (TNS & CRAB-2 receptors): decrease in the expression
- anti-hair loss properties [3]: particularly effective
